Converted amounts (≈) assume the structure as drawn.
Experiments:
[1] = tested on: Erwinia carotovora; assay: Gas-phase bioassay in hermetically sealed vials, growth inhibition of the bacterium Erwinia carotovora; type: cell-based; details: compound in the gas phase; for IC50: Pectobacterium carotovorum, read-out: IC50 (50% inhibiting concentration)
Protocol: (§1) The antifungal and antibacterial activity of the VOC obtained in Example 1 was tested by bioassay in hermetically sealed vials in which the microorganism was cultured while being exposed to the compound under test in the gas phase at different concentrations. […] The IC50 (50% inhibiting concentration), the MIC (minimum inhibiting concentration) and the MLC (minimum lethal concentration) were calculated.

[2] = tested on: Botrytis cinerea; assay: Gas-phase bioassay in hermetically sealed vials, growth inhibition of the fungus Botrytis cinerea; type: cell-based; details: compound in the gas phase; for IC50: read-out: IC50 (50% inhibiting concentration)
Protocol: as §1

Structure (SMILES) | IC50 [1] [µg/mL] | MIC (minimum inhibiting concentration) [1] [mg/Lair] | MLC (minimum lethal concentration) [1] [mg/Lair] | MIC (minimum inhibiting concentration) [2] [mg/Lair] | MLC (minimum lethal concentration) [2] [mg/Lair] | IC50 [2] [µg/mL]
CC1(C)[C@@H]2CC[C@@]1(C)[C@H](O)C2 (racemic) [isoborneol] | > 150 | >150 | >150 | 40 | 40 | 5 (≈ 32.4 µM)
CCCCC(CC)CO (stereo not drawn) [2-ethyl-1-hexanol] | 15 (≈ 115 µM) | 50 | 75 | 5 | 10 | 4 (≈ 30.7 µM)
CCCCCCO [hexanol] | 150 (≈ 1470 µM) | >150 | >150 | 20 | 40 | 15 (≈ 147 µM)

— patent US20130345051A1, “FUNGICIDAL AND BACTERICIDAL COMPOSITION THAT COMPRISES VOLATILE ORGANIC COMPOUNDS OF NATURAL ORIGIN” (BIOFUNGITEK, SOCIEDAD LIMITADA, priority 2011, published 2013)
